pEC50: −log10 of the molar value. Calls of active or inactive are those of the source. The rule behind the calls is not given here.
How the values were obtained:
[1] = tested on: Variola virus; assay: Antiviral activity against Variola virus BSH74-sol infected in african green monkey BSC-40 cells at 0.005 uM assessed as reduction in virus-induced cytopathic effect; format: functional, organism-based
[2] = tested on: Variola virus; assay: Antiviral activity against Variola virus SUD47-juba infected in african green monkey BSC-40 cells at 0.015 uM assessed as reduction in virus-induced cytopathic effect; format: functional, organism-based
[3] = tested on: Variola virus; assay: Antiviral activity against Variola virus SUD47-juba infected in african green monkey BSC-40 cells at 0.005 uM by IHC staining-based comet tail reduction assay; format: functional, organism-based
[4] = tested on: Variola virus; assay: Antiviral activity against Variola virus SLN68-258 infected in african green monkey BSC-40 cells at 0.05 to 0.5 uM by IHC staining-based plaque reduction assay; format: functional, organism-based
[5] = tested on: Variola virus; assay: Antiviral activity against Variola virus BSH74-sol infected in african green monkey BSC-40 cells assessed as reduction in viral plaque formation at 0.015 uM uM by IHC staining-based plaque reduction assay; format: functional
[6] = tested on: Monkeypox virus; assay: Antiviral activity against Monkeypox virus V77-I-823 infected in african green monkey BSC-40 cells assessed as reduction in virus-induced cytopathic effect at 0.005 uM; format: functional, organism-based
[7] = tested on: Monkeypox virus; assay: Antiviral activity against Monkeypox virus V81-I-179 infected in african green monkey BSC-40 cells assessed as reduction in virus-induced cytopathic effect at 0.015 uM; format: functional, organism-based
[8] = tested on: Monkeypox virus; assay: Antiviral activity against Monkeypox virus V78-I-3945 infected in african green monkey BSC-40 cells at 0.005 uM uM by IHC staining-based plaque reduction assay; format: functional, organism-based
[9] = tested on: Variola virus; assay: Antiviral activity against Variola virus NEP73-175 infected in african green monkey BSC-40 cells at 0.05 to 5 uM assessed as reduction in virus-induced cytopathic effect; format: functional, organism-based
[10] = tested on: Monkeypox virus; assay: Antiviral activity against Monkeypox virus V78-I-3945 infected in african green monkey BSC-40 cells assessed as reduction in virus-induced cytopathic effect at 0.005 uM; format: functional, organism-based
[11] = tested on: Variola virus; assay: Antiviral activity against Variola virus BRZ66-39 infected in african green monkey BSC-40 cells at 0.05 to 0.5 uM by IHC staining-based comet tail reduction assay; format: functional, organism-based
[12] = tested on: Monkeypox virus; assay: Antiviral activity against Monkeypox virus V78-I-3945 infected in african green monkey BSC-40 cells assessed as reduction in virus-induced cytopathic effect at 0.015 uM; format: functional, organism-based
[13] = tested on: Variola virus; assay: Antiviral activity against Variola virus SOM77-ali infected in african green monkey BSC-40 cells assessed as reduction in viral plaque formation at 0.015 uM uM by IHC staining-based plaque reduction assay; format: functional
[14] = tested on: Monkeypox virus; assay: Antiviral activity against Monkeypox virus 2003-USA-039 infected in african green monkey BSC-40 cells at 0.005 uM uM by IHC staining-based plaque reduction assay; format: functional, organism-based
[15] = tested on: Monkeypox virus; assay: Antiviral activity against Monkeypox virus V81-I-179 infected in african green monkey BSC-40 cells assessed as reduction in virus-induced cytopathic effect at 0.005 uM; format: functional, organism-based
[16] = tested on: Monkeypox virus; assay: Antiviral activity against Monkeypox virus V1979-I-005 infected in african green monkey BSC-40 cells assessed as reduction in virus-induced cytopathic effect at 0.05 to 5 uM; format: functional, organism-based
[17] = tested on: Monkeypox virus; assay: Antiviral activity against Monkeypox virus V78-I-3945 infected in african green monkey BSC-40 cells at 0.05 to 0.5 uM by IHC staining-based comet tail reduction assay; format: functional, organism-based
[18] = tested on: Monkeypox virus; assay: Antiviral activity against Monkeypox virus V81-I-179 infected in african green monkey BSC-40 cells assessed as reduction in virus-induced cytopathic effect; format: functional, organism-based; details: V81-I-179, BSC-40
[19] = tested on: Variola virus; assay: Antiviral activity against Variola virus SLN68-258 infected in african green monkey BSC-40 cells at 0.05 to 0.5 uM by IHC staining-based comet tail reduction assay; format: functional, organism-based
[20] = tested on: Variola virus; assay: Antiviral activity against Variola virus NEP73-175 infected in african green monkey BSC-40 cells at 0.015 uM assessed as reduction in virus-induced cytopathic effect; format: functional, organism-based
[21] = tested on: Variola virus; assay: Antiviral activity against Variola virus SLN68-258 infected in african green monkey BSC-40 cells at 0.005 uM assessed as reduction in virus-induced cytopathic effect; format: functional, organism-based
[22] = tested on: Variola virus; assay: Antiviral activity against Variola virus BRZ66-39 infected in african green monkey BSC-40 cells at 0.005 uM by IHC staining-based comet tail reduction assay; format: functional, organism-based
[23] = tested on: Monkeypox virus; assay: Antiviral activity against Monkeypox virus V81-I-179 infected in african green monkey BSC-40 cells assessed as reduction in viral plaque formation at 0.015 uM uM by IHC staining-based plaque reduction assay; format: functional
[24] = tested on: Variola virus; assay: Antiviral activity against Variola virus SLN68-258 infected in african green monkey BSC-40 cells at 0.05 to 5 uM assessed as reduction in virus-induced cytopathic effect; format: functional, organism-based
[25] = tested on: Monkeypox virus; assay: Antiviral activity against Monkeypox virus 2003-USA-039 infected in african green monkey BSC-40 cells at 0.05 to 0.5 uM by IHC staining-based plaque reduction assay; format: functional, organism-based
[26] = tested on: Monkeypox virus; assay: Antiviral activity against Monkeypox virus 2003-USA-039 infected in african green monkey BSC-40 cells assessed as reduction in virus-induced cytopathic effect; format: functional, organism-based; details: 2003-USA-039, BSC-40
[27] = tested on: Monkeypox virus; assay: Antiviral activity against Monkeypox virus V77-I-823 infected in african green monkey BSC-40 cells at 0.005 uM by IHC staining-based comet tail reduction assay; format: functional, organism-based
[28] = tested on: Variola virus; assay: Antiviral activity against Variola virus SOM77-ali infected in african green monkey BSC-40 cells at 0.05 to 0.5 uM by IHC staining-based comet tail reduction assay; format: functional, organism-based
[29] = tested on: Variola virus; assay: Antiviral activity against Variola virus SUD47-juba infected in african green monkey BSC-40 cells at 0.05 to 0.5 uM by IHC staining-based plaque reduction assay; format: functional, organism-based
[30] = tested on: Variola virus; assay: Antiviral activity against Variola virus SLN68-258 infected in african green monkey BSC-40 cells assessed as reduction in viral plaque formation at 0.015 uM uM by IHC staining-based plaque reduction assay; format: functional
[31] = tested on: Monkeypox virus; assay: Antiviral activity against Monkeypox virus V78-I-3945 infected in african green monkey BSC-40 cells at 0.05 to 0.5 uM by IHC staining-based plaque reduction assay; format: functional, organism-based
[32] = tested on: Variola virus; assay: Antiviral activity against Variola virus NEP73-175 infected in african green monkey BSC-40 cells at 0.015 uM by IHC staining-based comet tail reduction assay; format: functional, organism-based
[33] = tested on: Variola virus; assay: Antiviral activity against Variola virus SLN68-258 infected in african green monkey BSC-40 cells at 0.005 uM by IHC staining-based comet tail reduction assay; format: functional, organism-based
[34] = tested on: Variola virus; assay: Antiviral activity against Variola virus SUD47-juba infected in african green monkey BSC-40 cells at 0.005 uM assessed as reduction in virus-induced cytopathic effect; format: functional, organism-based
[35] = tested on: Variola virus; assay: Antiviral activity against Variola virus NEP73-175 infected in african green monkey BSC-40 cells at 0.005 uM assessed as reduction in virus-induced cytopathic effect; format: functional, organism-based
[36] = tested on: Variola virus; assay: Antiviral activity against Variola virus NEP73-175 infected in african green monkey BSC-40 cells at 0.05 to 0.5 uM by IHC staining-based plaque reduction assay; format: functional, organism-based

## O=C(NN1C(=O)[C@@H]2[C@@H]3C=C[C@@H]([C@H]4C[C@@H]34)[C@@H]2C1=O)c1ccc(C(F)(F)F)cc1 [TECOVIRIMAT]
[1]
  Activity: inactive
[2]
  Activity: Active
[3]
  Activity: inactive
[4]
  Activity: Active
[5]
  inhibition (INH): 50%
[6]
  Activity: inactive
[7]
  Activity: Active
[8]
  Activity: inactive
[9]
  Activity: Active
[10]
  Activity: inactive
[11]
  Activity: Active
[12]
  Activity: Active
[13]
  inhibition (INH): 50%
[14]
  Activity: inactive
[15]
  Activity: inactive
[16]
  Activity: Active
[17]
  Activity: Active
[18]
  pEC50: 7.49
[19]
  Activity: Active
[20]
  Activity: Active
[21]
  Activity: inactive
[22]
  Activity: inactive
[23]
  inhibition (INH): 50%
[24]
  Activity: Active
[25]
  Activity: Active
[26]
  pEC50: 7.44
[27]
  Activity: inactive
[28]
  Activity: Active
[29]
  Activity: Active
[30]
  inhibition (INH): 50%
[31]
  Activity: Active
[32]
  Activity: Active
[33]
  Activity: inactive
[34]
  Activity: inactive
[35]
  Activity: inactive
[36]
  Activity: Active
